Patent publication US20250360235A1, “RADI[…] AND METHOD FOR RADIOLABELLING” (Telix Innovations SA, priority 2024, published 2025)

Test: Radiochemical purity by iTLC over time after radiolabelling
Format: physicochemical
Protocol: Table 1 to Table 5 show the results of various radiolabelling experiments on radiochemical purity and the chelation yield. The radiolabelling experiments in the tables are carried out as described in: • Example 1 for when the gallium-68 source is GE Liquid target generator and EZAG GalliaPharm generator; • Example 2 for when the gallium-68 source is IRE Galli Eo generator; • Example 3 for when the gallium-68 source is GE solid target generator;
However, the experiments were carried out with the amount of ascorbic acid as indicated in the Tables 1 to 5, and the activity as indicated in the Tables 1 to 5. Radiochemical purities were measured at various times (T0, T1, T4, T6) after the radiolabelled experiments have been conducted.
The kits of Example 1, Example 2 or Example 3, with amounts of ascorbic acid as set out in Table 7 were used in the experiments for the ascorbic acid bracketing matrix. Three strengths of [^68Ga]Ga-PSMA-11 will be tested, i.e. 50 mCi/ml, 7 mCi/ml and 1 mCi/ml. Radiochemical purity was determined at different time points (TO, T1, T4 or T6), as set out in Table 7.

[1] = 15 mg ascorbic acid, 10.0-18.4 mCi, 0.95-1.77 mCi/mL, 1 × EZAG GalliaPharm, 2 × IRE Galli Eo, average of 3, T1 (1 h)
[2] = 15 mg ascorbic acid, 10.0-18.4 mCi, 0.95-1.77 mCi/mL, 1 × EZAG GalliaPharm, 2 × IRE Galli Eo, n=3, T0
[3] = 15 mg ascorbic acid, 10.0-18.4 mCi, 0.95-1.77 mCi/mL, 1 × EZAG GalliaPharm, 2 × IRE Galli Eo, n=3, T1 (1 h)
[4] = 15 mg ascorbic acid, 23.7-47.6 mCi, 2.26-4.53 mCi/mL, 1 × EZAG GalliaPharm, 2 × IRE Galli Eo, average of 3, T0
[5] = 15 mg ascorbic acid, 23.7-47.6 mCi, 2.26-4.53 mCi/mL, 1 × EZAG GalliaPharm, 2 × IRE Galli Eo, average of 3, T4 (4 h)
[6] = 15 mg ascorbic acid, 23.7-47.6 mCi, 2.26-4.53 mCi/mL, 1 × EZAG GalliaPharm, 2 × IRE Galli Eo, n=3, T0
[7] = 15 mg ascorbic acid, 23.7-47.6 mCi, 2.26-4.53 mCi/mL, 1 × EZAG GalliaPharm, 2 × IRE Galli Eo, n=3, T4 (4 h)
[8] = 20 mg ascorbic acid, 514-544 mCi, 48.3-51.9 mCi/mL, GE Solid Target, average of 2, T0
[9] = 20 mg ascorbic acid, 514-544 mCi, 48.3-51.9 mCi/mL, GE Solid Target, average of 2, T6 (6 h)
[10] = 20 mg ascorbic acid, 514-544 mCi, 48.3-51.9 mCi/mL, GE Solid Target, n=2, T0
[11] = 20 mg ascorbic acid, 514-544 mCi, 48.3-51.9 mCi/mL, GE Solid Target, n=2, T6 (6 h)
[12] = 25 mg ascorbic acid, 19.5-20.0 mCi, 1.85-1.90 mCi/mL, EZAG GalliaPharm, average of 2, T0
[13] = 25 mg ascorbic acid, 19.5-20.0 mCi, 1.85-1.90 mCi/mL, EZAG GalliaPharm, average of 2, T1 (1 h)
[14] = 25 mg ascorbic acid, 19.5-20.0 mCi, 1.85-1.90 mCi/mL, EZAG GalliaPharm, n=2, T0
[15] = 25 mg ascorbic acid, 19.5-20.0 mCi, 1.85-1.90 mCi/mL, EZAG GalliaPharm, n=2, T1 (1 h)
[16] = 25 mg ascorbic acid, 23.3-24 mCi, 2.22-2.28 mCi/mL, IRE Galli Eo, average of 2, T0
[17] = 25 mg ascorbic acid, 23.3-24 mCi, 2.22-2.28 mCi/mL, IRE Galli Eo, average of 2, T4 (4 h)
[18] = 25 mg ascorbic acid, 23.3-24 mCi, 2.22-2.28 mCi/mL, IRE Galli Eo, n=2, T0
[19] = 25 mg ascorbic acid, 23.3-24 mCi, 2.22-2.28 mCi/mL, IRE Galli Eo, n=2, T4 (4 h)
[20] = 25 mg ascorbic acid, 46.0-46.1 mCi, 4.38-4.39 mCi/mL, EZAG GalliaPharm, average of 2, T0

With `O=C([O-])CN(CCN(CC(=O)[O-])Cc1cc(CCC(=O)NCCCCCC(=O)NCCCC[C@H](NC(=O)N[C@@H](CCC(=O)O)C(=O)O)C(=O)O)ccc1[O-])Cc1cc(CCC(=O)O)ccc1[O-].[68Ga+3].[OH3+]` [[^68Ga]PSMA-11, gallium-68 radiolabelled Glu-urea-Lys-HBED-CC (gozetotide or PSMA-11)] the “Radiochemical Purity (iTLC) Ga-68 PSMA-11 (%)” value (15 mg ascorbic acid, 10.0-18.4 mCi, 0.95-1.77 mCi/mL, 1 × EZAG GalliaPharm, 2 × IRE Galli Eo, average of 3, T0) was 100%, the “Radiochemical Purity (iTLC) Free and Colloidal Ga-68 (%)” value [1] was 0% and the “Radiochemical Purity (iTLC) Ga-68 PSMA-11 (%)” value [1] was 100%. For the same compound, the “Radiochemical Purity (iTLC) Free and Colloidal Ga-68 (%)” value [2] was “C (C = conforms to specifications)”, the “Radiochemical Purity (iTLC) Ga-68 PSMA-11 (%)” value [2] was “C (C = conforms to specifications)” and the “Radiochemical Purity (iTLC) Free and Colloidal Ga-68 (%)” value [3] was “C (C = conforms to specifications)”. The “Radiochemical Purity (iTLC) Ga-68 PSMA-11 (%)” value [3] was “C (C = conforms to specifications)”, the “Radiochemical Purity (iTLC) Free and Colloidal Ga-68 (%)” value [4] was 0% and the “Radiochemical Purity (iTLC) Ga-68 PSMA-11 (%)” value [4] was 100%. For the same compound, the “Radiochemical Purity (iTLC) Free and Colloidal Ga-68 (%)” value [5] was 0%, the “Radiochemical Purity (iTLC) Ga-68 PSMA-11 (%)” value [5] was 100% and the “Radiochemical Purity (iTLC) Free and Colloidal Ga-68 (%)” value [6] was “C (C = conforms to specifications)”. For the same compound, the “Radiochemical Purity (iTLC) Ga-68 PSMA-11 (%)” value [6] was “C (C = conforms to specifications)”, the “Radiochemical Purity (iTLC) Free and Colloidal Ga-68 (%)” value [7] was “C (C = conforms to specifications)” and the “Radiochemical Purity (iTLC) Ga-68 PSMA-11 (%)” value [7] was “C (C = conforms to specifications)”. For the same compound, the “Radiochemical Purity (iTLC) Free and Colloidal Ga-68 (%)” value [8] was 3%, the “Radiochemical Purity (iTLC) Ga-68 PSMA-11 (%)” value [8] was 97% and the “Radiochemical Purity (iTLC) Free and Colloidal Ga-68 (%)” value [9] was 2%. The “Radiochemical Purity (iTLC) Ga-68 PSMA-11 (%)” value [9] was 98%, the “Radiochemical Purity (iTLC) Free and Colloidal Ga-68 (%)” value [10] was “C (C = conforms to specifications)” and the “Radiochemical Purity (iTLC) Ga-68 PSMA-11 (%)” value [10] was “C (C = conforms to specifications)”. The “Radiochemical Purity (iTLC) Free and Colloidal Ga-68 (%)” value [11] was “C (C = conforms to specifications)”, the “Radiochemical Purity (iTLC) Ga-68 PSMA-11 (%)” value [11] was “C (C = conforms to specifications)” and the “Radiochemical Purity (iTLC) Free and Colloidal Ga-68 (%)” value [12] was 2%. For the same compound, the “Radiochemical Purity (iTLC) Ga-68 PSMA-11 (%)” value [12] was 98%, the “Radiochemical Purity (iTLC) Free and Colloidal Ga-68 (%)” value [13] was 0% and the “Radiochemical Purity (iTLC) Ga-68 PSMA-11 (%)” value [13] was 100%. For the same compound, the “Radiochemical Purity (iTLC) Free and Colloidal Ga-68 (%)” value [14] was “C (C = all results conform to specifications)”, the “Radiochemical Purity (iTLC) Ga-68 PSMA-11 (%)” value [14] was “C (C = all results conform to specifications)” and the “Radiochemical Purity (iTLC) Free and Colloidal Ga-68 (%)” value [15] was “C (C = all results conform to specifications)”. The “Radiochemical Purity (iTLC) Ga-68 PSMA-11 (%)” value [15] was “C (C = all results conform to specifications)”, the “Radiochemical Purity (iTLC) Free and Colloidal Ga-68 (%)” value [16] was 1% and the “Radiochemical Purity (iTLC) Ga-68 PSMA-11 (%)” value [16] was 99%. For the same compound, the “Radiochemical Purity (iTLC) Free and Colloidal Ga-68 (%)” value [17] was 0%, the “Radiochemical Purity (iTLC) Ga-68 PSMA-11 (%)” value [17] was 100% and the “Radiochemical Purity (iTLC) Free and Colloidal Ga-68 (%)” value [18] was “C (C = all results conform to specifications)”. For the same compound, the “Radiochemical Purity (iTLC) Ga-68 PSMA-11 (%)” value [18] was “C (C = all results conform to specifications)”, the “Radiochemical Purity (iTLC) Free and Colloidal Ga-68 (%)” value [19] was “C (C = all results conform to specifications)” and the “Radiochemical Purity (iTLC) Ga-68 PSMA-11 (%)” value [19] was “C (C = all results conform to specifications)”. For the same compound, the “Radiochemical Purity (iTLC) Free and Colloidal Ga-68 (%)” value [20] was 0% and the “Radiochemical Purity (iTLC) Ga-68 PSMA-11 (%)” value [20] was 100%.
